In US9983196B2, “Compositions and methods for optimizing drug hydrophobicity and drug delivery to cells” (Bioelastics, Inc., priority 2009, dated 2018):

Key:
[1] = microbial preparations of poly(30 mers) (GVGVP GVGVP GχGVP GVGVP GVGVP GVGVP)n, n ≈ 40; cited from earlier work
[2] = microbial preparations of poly(30 mers), n ≈ 40; cited from earlier work
[3] = differential scanning calorimetry of the inverse temperature transition: ΔGHA-based hydrophobicity scale; format: physicochemical; conditions: from Table 1
From the text: Described herein is a hydrophobicity scale based on the change in Gibbs free energy of hydrophobic association. Increase in entropy of water drives endothermic phase transition of hydrophobic association. For a narrow phase transition the chemical potential, t, of the molecules in the phase separated, hydrophobically associated state, 1.IHA, and the solution, hydrophobically dissociated state, 1.1HD, are equal. Therefore, at constant temperature and pressure, i.e., at equilibrium, the change in Gibbs free energy for the phase transition is zero, (ΔGt)TP=0 and ΔHT=TtΔSt. For the breadth of the transition of elastic-contractile model proteins [ECMP], it is written: ΔHt≈TtΔSt, (1) i.e., the heat of the transition, ΔHt in kcal/mol, is approximated by the product of the temperature of the transition, Tt in ° K, times the entropy change attending the transition, ΔSt in kcal/° K-mol.
The van der Walls interaction is exothermic for the hydrophobic association attending the ITT, yet the ITT is endothermic. […] The derivation of the change in Gibbs free energy for hydrophobic association, ΔGHA, and evaluation by inverse temperature transition of hydrophobic association has been reported previously (D. W. Urry, The Change in Gibbs Free Energy for Hydrophobic Association Derivation and Evaluation by means of Inverse Temperature Transitions. Chem. Phys. Letters 399 (2004) 177-183.), and is given more simply below. […]
Given the above approximation, but also recognizing that ASt is a calculated result from the differential scanning calorimetric measurement of ΔHt, we define the change in Gibbs free energy for hydrophobic association, ΔGHA, as,
The differential scanning calorimetry (DSC) data of ΔHt(GVGVP) (SEQ ID NO:4) and ΔHt(GVGIP) (SEQ ID NO:8) in FIG. 1 of Luan and Urry, J Phys Chem 95:7896-7900, 1991 provide a specific example of the difference that defines ΔGHA. […] This is the same value of 1.5 kcal/mol-CH2 for the addition of a single CH2 as determined by Butler for the alcohol series.
Once the values are determined by difference with ΔHt(GVGVP) (SEQ ID NO:4) as represented in FIG. 1E, they are translated so the reference polymer is taken as (GGGVP (SEQ ID NO:11), as this residue is considered to be close to neutral, being neither polar nor apolar. For use of (GGGVP) (SEQ ID NO:11) as the reference, i.e., ΔHt(GGGVP) (SEQ ID NO:11)=AHt(ref), in Table 3 and FIG. 13, the change in Gibbs free energy for hydrophobic association is indicated as ΔG^oHA, i.e., […]
In this case most of the ΔG^oHA values have been obtained by taking the experimental Tt, suitably extrapolated to fx=1 to obtain Tt, and reading the value of ΔG^oHA from the sigmoid curve of FIG. 13. […]

[4] = negatively stained, electron micrograph; cited from earlier work

Substance | Tt (data within parentheses) [1] | ΔG°HA(GχGVP) (data within parentheses) [2] | ΔGHA of ionization (neutral versus charged residue) [3] [kcal/mol-pentamer] | nominal size of nanoparticles [4] [nm]
Glu(COO^−) [E−: Glu(COO^−)] | (218) ° C. | (+3.72) kcal/mol-pentamer | 5.2 | 
(GVGVPGVGFPGEGFPGVGVPGVGFPGFGFP)42 (GVGVP) (GVGVPGVGFPGEGFPGVGVPGVGFPGFGFPGVGVP; repeat (1)..(30) the first 30 residues are repeated 42 times) [ECMP polymer of 253 pentamers forming drug delivery nanoparticles] |  |  |  | 50
Lys(NH3+) [K+: Lys(NH3+)] | (104) ° C. | (+2.94) kcal/mol-pentamer | 3.5 | 
